The target of one assay is Cdk2-cyclin A (Homo sapiens, UniProt P24941). The assay is described as follows: In vitro kinase assay, Cdk2-cyclin A (in-house). It is filed as biochemical. As to conditions: three independent experiments; read-out: IC50 (mean±S.D.), Cdk2-cyclin A. The method, then: (§1) The in vitro kinase assays for testing against Cdk4-cyclin D1, Cdk2-cyclin A, Cdk1-cyclin B1 and Cdk9-cyclin T1 were performed in-house. The methodology and results have been reported previously.[20], [30], [31], [32], [45] The kinase profiling for 58 representative kinases was carrried out commercially at Millipore Bioscience Division, Livingston, UK.

For another assay, the target named is MEK1 (Homo sapiens, UniProt Q02750). The assay is described as follows: Kinase profiling (Millipore), MEK1. It is filed as biochemical. The procedure:
as §1

The subject of a further assay is HCT-116 tumours. Briefly: HCT-116 xenograft efficacy in SCID mice. Type of assay: in vivo. The note with it: 100 mpk intraperitoneal, 9 days, versus vehicle, P<0.05. The procedure:
A group of 60 SCID (SCID strain-CBySmn.CB17-Prkdc^scid/J; The Jackson Laboratory, Bar harbor, ME, USA; Stock no. 001803) male mice weighing 18–25 g and 6–8 weeks old were used for the studies. Human colon carcinoma, HCT-116 (ATCC; cat. no. CCL-247) cells were grown in McCoy's 5A medium supplemented with 10% FBS (Sigma-Aldrich). The cultured cells were injected subcutaneously into the dorsal side of SCID mice at the dose of 6.6 × 10^6 cells in 0.2 ml of suspension. When the tumour growth reached to about 4–6 mm in diameter (over about 5 days), the animals were randomly divided into eight groups, each containing seven mice. The treatments were continued for 9 consecutive days intraperitoneally. Flavopiridol (2.5 mpk) was used as a positive control in this study. Tumour size was recorded at 2–5 day intervals. Tumour weight (mg) was estimated according to the formula for a prolate ellipsoid: (length (mm) × width (mm)^2) × 0.5) assuming specific gravity to be one and π to be 3. Tumour growth in compound treated animals is calculated as T/C (treated/control) × 100% and growth inhibition percent (% GI) was (100−% T/C).[48], [49], [50]

The test system of a further assay is pBluescript plasmid DNA. The assay is described as follows: EtBr displacement assay. It is filed as binding. The note with it: 1.3 μM EtBr, pH 7.4. The procedure:
The assays were performed in a 96-well plate with clear bottom (Costar, Washington, DC, USA). The assay involved the addition of 10 μl of 10 × concentrated stock solution of compounds (dissolved in DMSO and further diluted in EtBr displacement assay buffer) to 90 μl of reaction mixture containing 6 μg of purified pBlueScript DNA and 1.3 μM EtBr in EtBr displacement assay buffer with final pH 7.4. Equivalent amounts of DMSO were added to the vehicle controls. In addition to control samples (DNA+EtBr), test samples (DNA+EtBr+test compounds), blank 1 (EtBr only), blank 2 (DNA only), wells containing DNA and compound were also prepared to test any change in the background fluorescence readings. The reduction in relative fluorescence counts was monitored ([…]) and recorded after 1 min equilibration time. Fascaplysin and actinomycin D, which are known to intercalate d-s DNA, were used as standard compounds in assay. The mean control and test readings were corrected by subtracting blank readings. The percentage fluorescence in the test samples in reaction with control samples was calculated by using following formula: […]

In assay [1] the test system is NCI-H1299 (NSCLC; p53 null, pRb+). Briefly: Cell proliferation (MTT) assay, NCI-H1299. It is filed as cell-based. The note with it: Homo sapiens, 48 h, read-out: IC50 cell growth inhibition, NCI-H1299. The procedure: (§2) All 10 human cancer cell lines were maintained at 37 °C in 5% CO2 in RPMI-1640 medium, supplemented with 10% foetal calf serum and 100 μg/ml normocin. The 10 cancer cell lines used for screening were all obtained from ATCC (Manassas, VA, USA); they were the NSCLC (a form of cancer that is resistant to chemotherapy) lines: NCI-H460 (pRb^+, p53^+), A549 (pRb^+, p53^+), Calu-1 (pRb^+, p53-null), NCI-H1299 (pRb^+, p53-null), NCI-H358 (pRb-null, p53-null); the colon cancer line LS174T (pRb^+, p53^+); the prostate cancer line PC-3 (pRb^+, p53-null); the pancreatic cancer line MiaPaca (pRb^+, p53-mutant). The genotypes within brackets indicate the status of the tumour suppressor proteins pRb and p53. The mouse embryonic normal hepatic cell line (BNL CL2) and its SV40 large T-antigen-transformed counterpart cell line (BNL SV A.8) were also purchased from ATCC. The large T-antigen inactivates the tumour suppressor proteins p53 and pRb. The detailed procedure of cell proliferation (MTT) assay and IC50 determination was described previously.[32]

Assay [2] deals with LS174T (colorectal carcinoma; p53+, pRb+). Briefly: Cell proliferation (MTT) assay, LS174T. It is filed as cell-based. The note with it: Homo sapiens, 48 h, read-out: IC50 cell growth inhibition, LS174T. The method, then: as §2
Assay [3] concerns several human cancer cells. The assay is described as follows: Growth inhibition of several human cancer cells. Type of assay: cell-based. The method, then: as §2
For another assay, the target named is PDGFR. Briefly: Kinase profiling (Millipore), PDGFR. Type of assay: biochemical. The method, then: as §1
Assay [4] relates to NCI-H460 (NSCLC; p53+, pRb+). Briefly: Cell proliferation (MTT) assay, NCI-H460. It is filed as cell-based. The note with it: Homo sapiens, 48 h, read-out: IC50 cell growth inhibition, NCI-H460. The method, then: as §2
The next assay addresses IGF-1 R (Homo sapiens, UniProt P08069). Briefly: Kinase profiling (Millipore), IGF-1 R. It is filed as biochemical. The procedure:
as §1

For assay [5], the system named is BNL CL2 (mouse normal hepatic cells). Briefly: Cell proliferation (MTT) assay, BNL CL2. Type of assay: cell-based. The procedure: as §2
[6] abbreviates: BNL CL2, concentration used in long-term survival assay (Fig. S3).

The structures appear in SMILES notation. Entries after “also recorded” stand apart in the source; their conditions may differ. Where two headings read alike, the source gives them in different places. A value given as a limit tells only on which side of the number the result lay.

Sequence of MEK1 (Q02750 whole entry): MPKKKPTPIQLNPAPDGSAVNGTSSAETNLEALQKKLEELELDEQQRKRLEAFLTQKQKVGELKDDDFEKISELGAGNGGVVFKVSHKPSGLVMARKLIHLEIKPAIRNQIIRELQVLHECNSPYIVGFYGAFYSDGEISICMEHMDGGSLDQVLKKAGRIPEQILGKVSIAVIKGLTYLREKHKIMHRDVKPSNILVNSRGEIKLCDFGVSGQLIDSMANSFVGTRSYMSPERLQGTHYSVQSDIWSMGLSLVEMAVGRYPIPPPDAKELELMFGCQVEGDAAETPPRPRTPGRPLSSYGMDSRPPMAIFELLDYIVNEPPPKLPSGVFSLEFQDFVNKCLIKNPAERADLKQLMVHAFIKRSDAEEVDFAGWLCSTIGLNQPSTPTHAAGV
Sequence of IGF-1 R (P08069 31-1367): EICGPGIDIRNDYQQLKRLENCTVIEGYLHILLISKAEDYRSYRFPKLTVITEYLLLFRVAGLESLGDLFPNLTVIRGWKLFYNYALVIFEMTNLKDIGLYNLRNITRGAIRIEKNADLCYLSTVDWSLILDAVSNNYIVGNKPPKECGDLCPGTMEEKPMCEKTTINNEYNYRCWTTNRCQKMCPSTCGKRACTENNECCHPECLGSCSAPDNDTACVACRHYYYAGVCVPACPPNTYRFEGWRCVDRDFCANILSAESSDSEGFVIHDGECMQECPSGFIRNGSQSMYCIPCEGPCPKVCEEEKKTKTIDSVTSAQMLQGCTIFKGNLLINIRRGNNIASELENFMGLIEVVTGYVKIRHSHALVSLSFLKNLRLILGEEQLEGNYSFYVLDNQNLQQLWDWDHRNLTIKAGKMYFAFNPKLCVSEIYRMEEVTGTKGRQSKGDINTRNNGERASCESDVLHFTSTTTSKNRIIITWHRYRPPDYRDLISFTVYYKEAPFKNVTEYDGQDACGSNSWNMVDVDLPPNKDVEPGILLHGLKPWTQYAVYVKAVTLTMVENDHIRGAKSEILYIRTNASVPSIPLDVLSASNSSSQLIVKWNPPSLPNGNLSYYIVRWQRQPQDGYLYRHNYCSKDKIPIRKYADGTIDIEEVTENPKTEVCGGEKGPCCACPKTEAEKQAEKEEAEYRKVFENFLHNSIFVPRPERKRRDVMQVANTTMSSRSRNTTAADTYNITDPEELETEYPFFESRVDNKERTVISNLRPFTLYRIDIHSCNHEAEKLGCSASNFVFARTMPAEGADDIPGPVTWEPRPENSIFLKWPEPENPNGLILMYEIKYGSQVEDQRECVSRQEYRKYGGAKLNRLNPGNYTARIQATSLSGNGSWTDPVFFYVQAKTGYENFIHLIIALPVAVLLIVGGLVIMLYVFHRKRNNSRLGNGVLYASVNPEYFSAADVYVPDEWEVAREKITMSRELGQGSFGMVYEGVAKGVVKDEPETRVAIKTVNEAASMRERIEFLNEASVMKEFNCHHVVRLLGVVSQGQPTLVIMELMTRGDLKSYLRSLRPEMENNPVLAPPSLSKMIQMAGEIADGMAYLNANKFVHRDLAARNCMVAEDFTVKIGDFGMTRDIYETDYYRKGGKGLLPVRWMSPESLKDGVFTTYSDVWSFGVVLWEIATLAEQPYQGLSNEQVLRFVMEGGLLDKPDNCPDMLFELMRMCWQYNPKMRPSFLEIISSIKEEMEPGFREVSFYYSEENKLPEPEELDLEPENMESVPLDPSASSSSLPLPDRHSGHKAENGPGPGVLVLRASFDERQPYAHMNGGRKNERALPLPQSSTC

The IC50 is the point on the concentration scale where inhibition reaches its midpoint. In general, IC30 refers to the point of the concentration-response curve where the effect stands at 30%. A high value points to a need for much substance. Usually IC70 stands for the point of the concentration-response curve where the effect stands at 70%. A lower IC70 goes with greater potency. As a reminder, the IC20 is the concentration needed for an effect of 20%. Read a low IC20 as greater potency. For the compound `O=C(c1ccccc1-c1ccccc1)N1CCc2c([nH]c3ccccc23)C1` [BPT, 2-(biphenyl-2-carbonyl)-2,3,4,9-tetrahydro-1H-pyrido[3,4-b]indole], the IC50 on Cdk2-cyclin A is 831000 ± 15500 nM; against MEK1, > 10000 nM; in assay [1], 900 nM; in assay [2], 850 nM; in assay [3], < 1000 nM; against PDGFR, > 10000 nM. Also, the half-inhibitory concentration (IC50) in assay [4] is 600 nM; at IGF-1 R, > 10000 nM; in assay [5] (Mus musculus, BNL CL.2, 48 h, MTT, read-out: IC50 cell growth inhibition, BNL CL2), 720 nM; in assay [5] (Mus musculus, BNL CL.2, BNL CL2, concentration used in long-term survival assay (Fig. S3), read-out: IC50), 600 nM. Besides, the tumour growth inhibition with HCT-116 tumours is on record as ~ 80%. For the same compound, in the assay with pBluescript plasmid DNA, the “EtBr displacement from DNA” value is listed as “incapable of displacing; also recorded: does not displace ethidium bromide; also recorded: No EtBr displacement up to 100 μM ^a”. For the same compound, in assay [5] (setting [6]), the IC30 was determined as 400 nM. This compound also showed an IC70 in assay [5] (setting [6]) of 900 nM. In assay [5] (Mus musculus, BNL CL.2, BNL CL2, concentration used in long-term survival assay (Fig. S3)), this compound returned an IC20 of 250 nM.
